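Tested at 5 concentrations; 48 h exposure; 96-well plates; endpoints linearly interpolated, else capped at highest concentration. GI50 is the concentration that inhibits growth by half.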 Activity calls are given as the source filed them. No stated cut-off is given here; in the data, active = GI50 up to about 1.1 µM and inactive = higher.
Experiments:
Assay in all cases: NCI tumour cell line growth inhibition, 48 h
OVCAR-3 = test system: OVCAR-3
HL-60 = test system: HL-60
OVCAR-4 = test system: OVCAR-4
HOP-62 = test system: HOP-62
CCRF-CEM = test system: CCRF-CEM
OVCAR-5 = test system: OVCAR-5
SNB-78 = test system: SNB-78
IGROV-1 = test system: IGROV-1
UO-31 = test system: UO-31
M14 = test system: M14
SR = test system: SR
LXFL 529 = test system: LXFL 529
MOLT-4 = test system: MOLT-4
Hs-578T = test system: Hs-578T
MDA-MB-435 = test system: MDA-MB-435
MDA-N = test system: MDA-N
NCI/ADR-RES = test system: NCI/ADR-RES
DU-145 = test system: DU-145
HOP-18 = test system: HOP-18

| Compound | GI50 (OVCAR-3) | GI50 (HL-60) | GI50 (OVCAR-4) | GI50 (HOP-62) | GI50 (CCRF-CEM) | GI50 (OVCAR-5) | GI50 (SNB-78) | GI50 (IGROV-1) | GI50 (UO-31) | GI50 (M14) | GI50 (SR) | GI50 (LXFL 529) | GI50 (MOLT-4) | GI50 (Hs-578T) | GI50 (MDA-MB-435) | GI50 (MDA-N) | GI50 (NCI/ADR-RES) | GI50 (DU-145) | GI50 (HOP-18) |
| --- | --- | --- | --- | --- | --- | --- | --- | --- | --- | --- | --- | --- | --- | --- | --- | --- | --- | --- | --- |
| CC(=O)c1ccc(NC(=O)C(=O)CC(=O)c2sc(-n3nc(-c4ccccc4)cc3-c3ccccc3)nc2C)cc1 | > 100 µM (inactive) | > 100 µM (inactive) | > 100 µM (inactive) | > 100 µM (inactive) | > 100 µM (inactive) | > 100 µM (inactive) | > 100 µM (inactive) | > 100 µM (inactive) | > 100 µM (inactive) | > 100 µM (inactive) | > 100 µM (inactive) | > 100 µM (inactive) | > 100 µM (inactive) | – | – | – | – | – | – |
| C=C1CC[C@@H](CCC2CCC3(OC2)O[C@]2(O)CC[C@@]3(C)OC2(C)C)C(C)(C)[C@H]1C/C=C1\CCOC1=O (stereo not given in full) | 15 µM (inactive) | 1.36 µM (inactive) | 12.3 µM (inactive) | 32.1 µM (inactive) | 10.4 µM (inactive) | > 56.1 µM (inactive) | – | 18.5 µM (inactive) | 30.3 µM (inactive) | 17.7 µM (inactive) | 2.67 µM (inactive) | – | 1.97 µM (inactive) | 20.5 µM (inactive) | 14.3 µM (inactive) | 20 µM (inactive) | 1.78 µM (inactive) | 12.5 µM (inactive) | – |
| Cc1ccc(S(=O)(=O)NNC(=O)c2sc(-c3nc(C)c(C(=O)NNS(=O)(=O)c4ccc(C)cc4)s3)nc2C)cc1 | > 100 µM (inactive) | 48.5 µM (inactive) | – | > 100 µM (inactive) | 45.6 µM (inactive) | > 100 µM (inactive) | > 100 µM (inactive) | > 100 µM (inactive) | 28.8 µM (inactive) | > 100 µM (inactive) | – | 62.8 µM (inactive) | 42.4 µM (inactive) | – | – | – | – | – | – |
| NCCCCC(N)C(=O)N1CCN(c2nc(N3CCCC3)c3nc(Cl)c(NCc4ccccc4)nc3n2)CC1 (stereo not given) | 18.9 µM (inactive) | 17 µM (inactive) | 23.2 µM (inactive) | 13.9 µM (inactive) | 15.5 µM (inactive) | 19.1 µM (inactive) | – | 14.1 µM (inactive) | 17.5 µM (inactive) | 19.1 µM (inactive) | 18.1 µM (inactive) | – | 24.5 µM (inactive) | 19.4 µM (inactive) | 23.2 µM (inactive) | 17.7 µM (inactive) | 44.6 µM (inactive) | 16.9 µM (inactive) | – |
| COc1cc2c(c3c1c(=O)c1ccccc1n3C)C=CC1(CCCCC1)O2 | 3.53 µM (inactive) | 3.88 µM (inactive) | 4.65 µM (inactive) | 2.3 µM (inactive) | 2.55 µM (inactive) | 5.73 µM (inactive) | – | 2.15 µM (inactive) | 0.1 µM (active) | 2.68 µM (inactive) | 1.95 µM (inactive) | – | 3.11 µM (inactive) | 2.54 µM (inactive) | 2.38 µM (inactive) | 2.96 µM (inactive) | 3.65 µM (inactive) | > 9.1 µM (inactive) | – |
| CC1c2c(Cl)nc3ccccc3c2Oc2c1c(Cl)nc1ccccc21 | 81.8 µM (inactive) | 29.6 µM (inactive) | – | > 100 µM (inactive) | > 100 µM (inactive) | > 100 µM (inactive) | > 100 µM (inactive) | > 100 µM (inactive) | 65 µM (inactive) | – | – | 53.5 µM (inactive) | 31.2 µM (inactive) | – | – | – | – | – | 7.21 µM (inactive) |
| CC1=C(/C=C/C(C)=C/C=C/C(C)=C/C=C/C=C(C)/C=C/C=C(C)/C=C/C=C(C)/C=C/C=C(\C)C(=O)O)C(C)(C)CCC1 | > 100 µM (inactive) | – | > 100 µM (inactive) | > 100 µM (inactive) | > 100 µM (inactive) | > 100 µM (inactive) | > 100 µM (inactive) | > 100 µM (inactive) | > 100 µM (inactive) | > 100 µM (inactive) | – | > 100 µM (inactive) | > 100 µM (inactive) | – | – | – | – | – | < 0.01 µM (active) |
| CC(=O)OCC1OC(n2cnc3nc(Br)[nH]c(=O)c32)C(OC(C)=O)C1OC(C)=O (stereo not given) | > 100 µM (inactive) | > 100 µM (inactive) | > 100 µM (inactive) | > 100 µM (inactive) | > 100 µM (inactive) | > 100 µM (inactive) | – | > 100 µM (inactive) | > 100 µM (inactive) | > 100 µM (inactive) | > 100 µM (inactive) | – | > 100 µM (inactive) | > 100 µM (inactive) | > 100 µM (inactive) | > 100 µM (inactive) | > 100 µM (inactive) | > 100 µM (inactive) | – |
| O=C1/C(=C/c2cccc(Br)c2)Cc2ccccc21 | 41.6 µM (inactive) | 68.7 µM (inactive) | 38.9 µM (inactive) | 44.6 µM (inactive) | 58.7 µM (inactive) | > 100 µM (inactive) | – | 16.8 µM (inactive) | 31.8 µM (inactive) | 67.3 µM (inactive) | 24.5 µM (inactive) | – | 62.7 µM (inactive) | 29.4 µM (inactive) | 80 µM (inactive) | 54 µM (inactive) | 50.6 µM (inactive) | 53.8 µM (inactive) | – |
| CC1(C)CCCCCCC2CC2CCCCCC(C)(C)C1=O (stereo not given) | 76.4 µM (inactive) | 16.6 µM (inactive) | > 100 µM (inactive) | > 100 µM (inactive) | 19.1 µM (inactive) | > 100 µM (inactive) | – | > 100 µM (inactive) | > 100 µM (inactive) | > 100 µM (inactive) | 0.787 µM (active) | – | 33.5 µM (inactive) | > 100 µM (inactive) | 49.9 µM (inactive) | 88.3 µM (inactive) | 99.3 µM (inactive) | > 100 µM (inactive) | – |
| CCOC(=O)c1nnc2c(C(=O)OCC)c3ccccc3n2c1N | 4.46 µM (inactive) | 2.15 µM (inactive) | 5.2 µM (inactive) | 68.9 µM (inactive) | 2.22 µM (inactive) | > 100 µM (inactive) | – | 1.12 µM (active) | 7.87 µM (inactive) | 5.97 µM (inactive) | 6.92 µM (inactive) | – | 4.41 µM (inactive) | 7.16 µM (inactive) | 5.05 µM (inactive) | 4.36 µM (inactive) | 3.61 µM (inactive) | 37.4 µM (inactive) | – |
| O=[N+]([O-])c1cc([As](Br)c2ccc(O)c([N+](=O)[O-])c2)ccc1O | 1.81 µM (inactive) | 1.17 µM (inactive) | 1.66 µM (inactive) | 1.91 µM (inactive) | 0.167 µM (active) | 2.05 µM (inactive) | – | 1.47 µM (inactive) | 1.61 µM (inactive) | 2.03 µM (inactive) | 0.383 µM (active) | – | 0.259 µM (active) | 2.41 µM (inactive) | 1.78 µM (inactive) | 1.53 µM (inactive) | 2.77 µM (inactive) | 2 µM (inactive) | – |
| OCCN(CCO)c1ccc2c(c1)Cc1ccccc1-2 | 17 µM (inactive) | 41.7 µM (inactive) | 57.1 µM (inactive) | 73.5 µM (inactive) | > 100 µM (inactive) | 48.3 µM (inactive) | – | – | 31.9 µM (inactive) | 32.2 µM (inactive) | 29.6 µM (inactive) | – | 45.8 µM (inactive) | 37.1 µM (inactive) | 51.6 µM (inactive) | 50.6 µM (inactive) | 46.8 µM (inactive) | 17.7 µM (inactive) | – |
| O=C1c2c[nH]nc2C(c2ccccc2)N1c1ccccc1 (stereo not given) | > 10 µM (inactive) | > 10 µM (inactive) | > 10 µM (inactive) | > 10 µM (inactive) | > 10 µM (inactive) | > 10 µM (inactive) | – | > 10 µM (inactive) | > 10 µM (inactive) | > 10 µM (inactive) | > 10 µM (inactive) | – | > 10 µM (inactive) | > 10 µM (inactive) | > 10 µM (inactive) | > 10 µM (inactive) | > 10 µM (inactive) | > 10 µM (inactive) | – |
| CC(=O)Nc1cc2ccc(=O)oc2cc1Cl | > 100 µM (inactive) | > 100 µM (inactive) | > 100 µM (inactive) | > 100 µM (inactive) | > 100 µM (inactive) | > 100 µM (inactive) | – | > 100 µM (inactive) | > 100 µM (inactive) | > 100 µM (inactive) | > 100 µM (inactive) | – | > 100 µM (inactive) | > 100 µM (inactive) | > 100 µM (inactive) | > 100 µM (inactive) | > 100 µM (inactive) | > 100 µM (inactive) | – |
| O=C1OCC2=C1C(c1ccc(Cl)cc1)c1cc3c(cc1O2)OCO3 (stereo not given) | 3.72 µM (inactive) | 2.21 µM (inactive) | 84.9 µM (inactive) | 3.4 µM (inactive) | 2.52 µM (inactive) | > 23.9 µM (inactive) | – | 3.56 µM (inactive) | 10.1 µM (inactive) | 4.08 µM (inactive) | 3.03 µM (inactive) | – | 2.74 µM (inactive) | 4.15 µM (inactive) | 0.778 µM (active) | 0.902 µM (active) | 2.64 µM (inactive) | 4.15 µM (inactive) | – |
| COc1cc(/C=C2\N=C(c3ccccc3)N(/N=C/c3cc4cc(C)ccc4nc3Cl)C2=O)ccc1O | 38.9 µM (inactive) | 24.9 µM (inactive) | 43.8 µM (inactive) | 49.3 µM (inactive) | 16.2 µM (inactive) | > 100 µM (inactive) | – | 30.1 µM (inactive) | 32.5 µM (inactive) | 42.1 µM (inactive) | 18.9 µM (inactive) | – | 23.4 µM (inactive) | 40.6 µM (inactive) | 17.3 µM (inactive) | 15.9 µM (inactive) | 31.6 µM (inactive) | 65.6 µM (inactive) | – |
| O=C1CCCC(=O)N1n1c(Cc2ccccc2)n[nH]c1=O | > 100 µM (inactive) | > 100 µM (inactive) | > 100 µM (inactive) | > 100 µM (inactive) | > 100 µM (inactive) | > 100 µM (inactive) | – | > 100 µM (inactive) | > 100 µM (inactive) | > 100 µM (inactive) | > 100 µM (inactive) | – | > 100 µM (inactive) | > 100 µM (inactive) | > 100 µM (inactive) | > 100 µM (inactive) | > 100 µM (inactive) | > 100 µM (inactive) | – |
